Results from US10947270B2, “Targeted prodrug cytosine deaminase fusion carrier and application thereof” (National Yang-Ming University, priority 2015, dated 2021).

Key:
[1] = test system: U87MG, HUVEC and MCF-7 cells; test: MTT cytotoxic test of EcCD series, statements for several cells; format: cell-based, human; settings: 5-FC alone
Procedure: (§1) Relative cell viability was measured by MTT assay. The 50 nM EcCD series fusion protein is applied to U87MG, HUVEC and MCF-7 cells at 37° C. for 2 hours, after washing the unbound protein with PBS.

[2] = test system: HUVEC, U87MG and MCF-7 cells; test: MTT cytotoxicity assay of yCD series, statements for all three cells; format: cell-based, human; settings: 5-FC alone
Procedure: (§2) The cell viability was determined by MTT assay. The seeded HUVEC cells shown in FIG. 7A, the seeded U87MG cells shown in FIG. 7B and the 96 wells of seeded MCF-7 cells shown in FIG. 7C are respectively added with 500 nM RGD4C-yCD, yCD, RGD4C-yCD/UPRT and yCD/UPRT recombinant protein, after removing the recombinant protein not bound with the cells and washing the cells, add 5-FC with different concentrations and observe the cell killing effect. Cells of the control groups were only incubated with different concentrations of 5-FU or 5-FC without protein treatment.
(§3) In this experiment, the MTT assay is applied to measure cytotoxicity induced by RGD4C-yCD/5-FC and RGD4C-yCD/UPRT/5-FC of the targeted prodrug enzyme fusion protein. In 96-well plate of seeded cells is respectively added with recombinant proteins such as 500 nM RGD4C-yCD, yCD, RGD4C-yCD/UPRT and yCD/UPRT, and co-cultured at 37° C. for 2 hours. The recombinant proteins not bound with cells are discarded. The cells were washed, and then were treated with different concentrations of 5-FC for observing the effect of cytotoxicity. On the other hand, the cells only treated with different concentrations of 5-FC and 5-FU separately as the control group.

MCF-7 cells [3] = test: MTT cytotoxic test of EcCD series fusion protein (50 nM) coupled with 5-FC; format: cell-based; settings: Homo sapiens, MCF7, 5-FU alone, 72 hours
Procedure: as §1

U87MG cells [4] = test: as above; format: cell-based; settings: Homo sapiens, U-87 MG, 5-FU alone, 72 hours
Procedure: as §1

HUVEC cells [5] = test: MTT cytotoxicity assay of yCD series protein combined with 5-FC; format: cell-based; settings: Homo sapiens, 5-FU alone
Procedure: as §2, §3

U87MG cells [6] = test: as above; format: cell-based; settings: Homo sapiens, U-87 MG, 5-FU alone
Procedure: as §2, §3

HUVEC and U87MG cells = test: TUNEL apoptosis assay of yCD series fusion protein combined with 5-FC; format: cell-based, human; settings: 500 nM protein, 100 μM 5-FC or 5-FU, 72 hours
Procedure: FIGS. 9A-9D show the cell apoptosis assay of the yCD series fusion protein combined with 5-FC in HUVEC and U87MG cells. […] And then TUNEL assay kit was used to detect the cell apoptosis (red signal: DNA fragment detected by TUNEL assay kit; blue signal: Hoechst 33342 cell nuclear stain). Cells of the control groups were only incubated with different concentrations of 5-FU or 5-FC without protein treatment. […] (*P value<0.05; Calibration scale: 20 μm)
Previous literature pointed out that 5-FU can promote apoptosis by inhibiting the synthesis of cellular DNA. This experiment is performed on apoptosis analysis to evaluate whether the enzyme precursor treatment system of RGD4C-yCD/5-FC and RGD4C-yCD/UPRT/5-FC can kill the cells by apoptotic mechanism. HUVEC and U87MG cells are co-cultured with culture medium containing 500 nM RGD4C-yCD and RGD4C-yCD/UPRT protein for 2 hours at 37° C., remove and wash the unbound or endocytic proteins, add 100 μM 5-FC or 5-FU, after acting for 72 hours, the DNA fragment of the apoptosis is stained with fluorescence by TUNEL assay analysis set, and the apoptosis is observed by conjugated fluorescence microscope. […] Furtherly, TUNEL fluorescence signals are quantified by image analysis software MetaMorph. […]

MCF-7 cells [7] = test: MTT cytotoxicity assay of yCD series protein combined with 5-FC; format: cell-based, human
Procedure: as §2, §3

HUVEC cells [8] = test: MTT cytotoxic test of EcCD series fusion protein (50 nM) coupled with 5-FC; format: cell-based, human; settings: 5-FU alone
Procedure: as §1

MCF-7 cells [9] = test: Competitive cell uptake with cRGDfk; format: cell-based, human; settings: cRGDfk 1000-fold molar excess, 4 hours
Procedure: (§4) The uptake of ^111In-DTPA-yCD is low in the all three cell lines. […] The uptake amount of ^111In-DTPA-RGD4C-yCD by each cell strain is used as a control group, and analyzed by two sample t-test statistical methods, *P-value<0.05, **P-value<0.01, ***P-value<0.001, ****P-value<0.0001.
(§5) ^111In-DTPA-yCD and ^111In-DTPA-RGD4C-yCD (20 μCi/50 pmol/mL) are separately added to the 24-well plate of the seeded cells (2.5×10^5 cells/well) and cultured for 4 hours, and then the radioactivity of the cells and culture medium are separately measured, calculate the uptake amount of the drug by the cells (shown as % AD/10^6 cells).

HUVEC cells [10] = test: Competitive cell uptake with cRGDfk; format: cell-based, human; settings: cRGDfk 1000-fold molar excess, 4 hours
Procedure: as §4, §5

U87MG cells [11] = test: Competitive cell uptake with cRGDfk; format: cell-based, human; settings: cRGDfk 1000-fold molar excess, 4 hours
Procedure: as §4, §5

[12] = parameters: species or system nude mice; settings: mouse, in vivo
Procedure: ES-2-luc tumor nude mice is intraperitoneally injected with 50 μCi (2.5 μg) ^111In-DTPA-yCD and ^111In-DTPA-RGD4C-yCD for 1, 4 and 24 hours, then organs are collected and their radioactivity is measured to obtain biodistribution, as shown in Table 19 and Table 20. […] In addition to the part accumulated in the tumor, another part of the drug is absorbed back into the blood circulation system by the peritoneal blood vessels. […] The pancreatic radioactivity of the two drugs is observed after 1 hour of injection. The pancreatic radioactivity of ^111In-DTPA-RGD4C-yCD (8.06±0.88% ID/g) is higher than that of ^111In-DTPA-yCD (3.91±0.36% ID/g), it is suspected that tumor cells invade the pancreas.

[13] = format: physicochemical
Procedure: The radiochemical purity of ^111In-DTPA-yCD and ^111In-DTPA-RGD4C-yCD are greater than 95% after marking and purification. Both are stored in HEPES buffer liquid (4° C.) for 48 hours, and the radiochemical purity is still higher than 85% (see FIG. 26). Both are placed in fetal bovine serum (37° C.) to simulate their stability in vivo. After 48 hours, the radiochemical purity of both is about 80%. It is shown that radioactive metal indium-111 is stably chelated on DTPA.

ES-2-luc cells = test: Competitive cell uptake with cRGDfk; format: cell-based; settings: cRGDfk 1000-fold molar excess, 4 hours
[14] = parameters: species or system nude mice; settings: mouse, in vivo; remark: listed apart in the source
Procedure: The arrow is marked as a tumor.
In in-vitro cell experiment, the binding ability of ^111In-DTPA-RGD4C-yCD and the integrin αvβ3 receptor on the cell membrane has been verified. In order to know whether the drug can show its target effect in vivo, integrin αvβ3 is seeded subcutaneously in the right side of nude mice. After the high-expression U87MG tumor cells are grown to 100 mm^3, 60-70 μCi (3-3.5 μg) of ^111In-DTPA-yCD and ^111In-DTPA-RGD4C-yCD are injected directly into the tumor, the images are collected by microSPECT/CT after 1, 4, 24, 48 hours. It can be seen from the image (see FIG. 31) that the drug retention in the ^111In-DTPA-RGD4C-yCD group (orange arrow) is better than that in the ^111In-DTPA-yCD, and the target ligand RGD4C is missing. ^111In-DTPA-yCD enters the systemic blood circulation system within 1 hour and is metabolized by normal organs. From FIG. 31, it can be seen that the kidney is the main metabolic organ of these two drugs. […] After 24-48 hours, the amount of accumulation in the tumor is running out. On the contrary, ^111In-DTPA-RGD4C-yCD is bound with integrin αvβ3 on tumor cells, then the ratio of drug entering the systemic blood circulation is reduced, and the metabolic rate is slow.

With `Nc1nc(=O)[nH]cc1F` [5-FC, 5-fluorocytosine] the survival rate [1] was ~100% and the “cytotoxic ability” value [2] was “not significant cytotoxic ability”.

Work on `O=c1[nH]cc(F)c(=O)[nH]1` [5-FU, 5-fluorouracil] yielded an IC50 (MCF-7 cells [3]) of 25.6 ± 0.3 µM, an IC50 (U87MG cells [4]) of 6.5 ± 0.2 µM and an IC50 (HUVEC cells [5]) of 1.6 ± 0.2 µM. For the same molecule, the IC50 (U87MG cells [6]) was 1.6 ± 0.3 µM, the “apoptosis (TUNEL, words)” value (HUVEC and U87MG cells) was “a large amount of apoptosis” and the IC50 (MCF-7 cells [7]; 5-FU alone) was 2.2 ± 0.3 µM. It also gave an IC50 (MCF-7 cells [7]; Homo sapiens, MCF7, 5-FU alone) of 2.1 ± 0.3 µM, an IC50 (HUVEC cells [8]; 72 hours) of 6.2 ± 1.3 µM and an IC50 (HUVEC cells [8]; Homo sapiens, 72 h) of 6.5 ± 1.3 µM.

B1: ^111In-DTPA-RGD4C-yCD: indium-111 labeled DTPA-RGD4C-yCD protein (conjugate)
chain: MACDCRGDCFCVTGGMASKWDQKGMDIAYEEAALGYKEGGVPIGGCLINNKDGSVLGRGHNMRFQKGSATLHGEISTLENCGRLEGKVYKDTTLYTTLSPCDMCTGAIIMYGIPRCVVGENVNFKSKGEKYLQTRGHEVVVVDDERCKKIMKQFIDERPQDWFEDIGELEHHHHHH
For B1, the “decrease of cell uptake by cRGDfk” value (MCF-7 cells [9]) was ~45%, the “decrease of cell uptake by cRGDfk” value (HUVEC cells [10]) was “about 65%” and the “decrease of cell uptake by cRGDfk” value (U87MG cells [11]) was ~55%. For the same molecule, the “radioactivity in the peritoneal cavity reduced to (fraction of 1 hour value)” value [12] was “¼”, the “radioactivity in tumor higher than that of ^111In-DTPA-yCD” value [12] was “approximately 3 times” and the “radiochemical purity after incubation” value [13] was “about 80%”. The “decrease of cell uptake by cRGDfk” value (ES-2-luc cells) was “about 70%” and the “accumulation in the tumor” value [14] was “considerable drug accumulation in the tumor”.
